From PMC5520492, “Inhibition of DNA2 nuclease as a therapeutic strategy targeting replication stress in cancer cells” (Oncogenesis, 2017)
Structures can show the parent of a compound that is named as a salt. Where two headings read alike, the source gives them in different places.

What was measured:
T5 nuclease = biological target: T1, T5 nuclease (Escherichia phage T5, UniProt P06229); experiment: T5 nuclease counter-screen (fluorescence nuclease assay); assay type: biochemical; parameters: concentration or dose not given beside the values; settings: re-screening against T5 nuclease
T1 construct: purchased NEB
T1 sequence (P06229 whole entry): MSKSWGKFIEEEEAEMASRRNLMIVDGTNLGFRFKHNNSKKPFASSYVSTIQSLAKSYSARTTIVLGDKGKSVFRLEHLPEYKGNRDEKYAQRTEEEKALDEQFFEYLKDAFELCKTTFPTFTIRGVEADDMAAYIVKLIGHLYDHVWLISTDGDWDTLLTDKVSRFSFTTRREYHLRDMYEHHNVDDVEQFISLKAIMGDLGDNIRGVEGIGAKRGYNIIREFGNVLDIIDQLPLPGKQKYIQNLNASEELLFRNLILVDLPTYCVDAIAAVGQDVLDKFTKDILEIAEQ
Method: (§1) The screen entailed the use of oligonucleotide (dT)30 having a reporter fluorescent moiety, 6-FAM on the 5′ end, and the dark quenching group, Iowa Black FQ, on the 3′ end. In addition, a second dark quencher ZEN was placed between the 9th and 10th base (Figure 2a). The fluorescence emitted by 6-FAM is quenched by FRET, but it increases when DNA is degraded by Dna2. […] The inhibitory activity of the compounds was determined as a reduction in fluorescent signal compared with the dimethylsulfoxide (DMSO) only control. […] We screened ~50 000 chemical compounds from six different libraries (Supplementary Table S1) to identify chemical inhibitors of the Dna2 nuclease activity. […] The DNA2 nuclease domain is well conserved among eukaryotes, and therefore we reasoned that inhibitors of yDna2 will likely also work with the human counterpart.
(§2) Initial screen, it was performed with yDna2.[22] Then, the top candidate compounds were tested on hDNA2. Identical reaction conditions were used for assaying the nuclease activity of yDna2 and hDNA2. […] The reaction buffer was 20 mM HEPES/NaOH, pH 7.5, 60 mM KCl, 1 mM DTT, 100 μg/ml bovine serum albumin and 0.05% Triton X-100. The nuclease assay was initiated by adding MgCl2 (3 mM final concentration). T5 nuclease was assayed in the buffer (50 mM potassium acetate, pH 7.9, 20 mM Tris-acetate, 10 mM magnesium acetate and 1 mM DTT) provided by the vendor (NEB, Ipswich, MA, USA). The concentration of the fluorogenic substrate was 0.1 μM. The optimal amount of yDna2, hDNA2 and T5 nuclease was determined by utilizing the Kaleidagraph software (Reading, PA, USA) to fit the data according to Michaelis Menton Kinetics (V=V0+Vmax*x/(Km+x)). […] The Z’ value was calculated as previously described.[50] Cell proliferation was determined using 4,6-diamidino-2-phenylindole staining followed by high-throughput microscopy in a 384-well plate setup. In brief, cells were fixed with formaldehyde, washed and stained with 4,6-diamidino-2-phenylindole and the number of nuclei in each well counted by automated microscopy. The data were analyzed as described.[51]

yDna2 = biological target: T2, yDna2 (Saccharomyces cerevisiae, UniProt P38859); experiment: High-throughput fluorescence nuclease assay with yDna2 (triply labeled (dT)30 ssDNA); assay type: biochemical, yeast; settings: for inhibition at 33.33 µM: read-out: % Inhibition yDna2
T2 construct: made in house
T2 sequence (P38859 whole entry): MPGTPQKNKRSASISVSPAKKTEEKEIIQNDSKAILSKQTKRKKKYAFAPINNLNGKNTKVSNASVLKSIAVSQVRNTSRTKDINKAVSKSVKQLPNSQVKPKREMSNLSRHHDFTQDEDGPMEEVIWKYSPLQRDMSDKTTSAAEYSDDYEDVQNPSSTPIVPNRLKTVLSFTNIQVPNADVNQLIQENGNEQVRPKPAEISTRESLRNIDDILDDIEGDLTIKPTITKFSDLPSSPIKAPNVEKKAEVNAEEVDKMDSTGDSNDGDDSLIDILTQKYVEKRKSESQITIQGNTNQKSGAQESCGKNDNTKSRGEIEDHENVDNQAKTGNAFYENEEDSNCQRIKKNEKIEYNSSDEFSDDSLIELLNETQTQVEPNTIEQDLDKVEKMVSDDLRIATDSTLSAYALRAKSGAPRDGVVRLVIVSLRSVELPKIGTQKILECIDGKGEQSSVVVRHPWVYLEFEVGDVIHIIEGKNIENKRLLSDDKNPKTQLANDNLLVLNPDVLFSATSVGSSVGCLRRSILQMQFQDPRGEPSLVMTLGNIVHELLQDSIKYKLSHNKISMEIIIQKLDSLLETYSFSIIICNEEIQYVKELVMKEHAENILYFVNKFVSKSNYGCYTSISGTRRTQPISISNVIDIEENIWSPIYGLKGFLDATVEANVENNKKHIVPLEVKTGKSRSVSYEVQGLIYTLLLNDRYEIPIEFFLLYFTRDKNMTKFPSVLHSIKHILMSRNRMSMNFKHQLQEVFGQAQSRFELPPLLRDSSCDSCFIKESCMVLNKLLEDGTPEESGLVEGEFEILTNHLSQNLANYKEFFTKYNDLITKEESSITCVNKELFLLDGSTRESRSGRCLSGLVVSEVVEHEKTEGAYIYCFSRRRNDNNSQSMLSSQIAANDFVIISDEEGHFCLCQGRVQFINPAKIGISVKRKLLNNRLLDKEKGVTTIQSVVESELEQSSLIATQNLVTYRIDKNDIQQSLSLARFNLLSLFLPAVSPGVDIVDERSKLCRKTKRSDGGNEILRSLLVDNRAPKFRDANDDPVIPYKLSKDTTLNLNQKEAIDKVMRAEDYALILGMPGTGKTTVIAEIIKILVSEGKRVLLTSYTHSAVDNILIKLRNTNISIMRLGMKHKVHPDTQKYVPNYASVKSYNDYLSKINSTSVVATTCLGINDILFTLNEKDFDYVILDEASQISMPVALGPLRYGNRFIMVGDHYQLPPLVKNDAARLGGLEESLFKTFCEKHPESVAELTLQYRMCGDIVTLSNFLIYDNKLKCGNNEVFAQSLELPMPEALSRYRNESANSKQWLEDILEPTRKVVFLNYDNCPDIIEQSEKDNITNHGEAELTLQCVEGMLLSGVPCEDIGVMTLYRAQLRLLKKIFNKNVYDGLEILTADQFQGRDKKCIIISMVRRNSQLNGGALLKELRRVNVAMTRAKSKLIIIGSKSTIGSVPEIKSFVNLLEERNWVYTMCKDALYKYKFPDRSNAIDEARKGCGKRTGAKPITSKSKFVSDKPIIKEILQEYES
Method: as §1, §2

U2OS cells = experiment: Cell-based viability/proliferation screen, DAPI staining and automated microscopy; parameters: species or system human; settings: Homo sapiens, 10 pM to 10 μM, DAPI staining, read-out: IC50 from Screening Cell Based
Method: The biological effectiveness of the 39 compounds selected by re-screening was determined by measuring their half maximal inhibitory concentration (IC50) biochemically and in a cell-based system using the 384-well platform (Supplementary Table S2). […] We conducted the viability assay in duplicate on three separate occasions using a concentration range of 10 pM to 10 μM for each compound. Cell proliferation was determined using 4,6-diamidino-2-phenylindole staining and microscopy.
In addition, a second dark quencher ZEN (N,N-diethyl-4-(4-nitronaphthalen-1-ylazo)-phenylamine, absorption max.=532 nm) is placed between 9th and 10th base (Figure 2a). Initial screen, it was performed with yDna2.[22] Then, the top candidate compounds were tested on hDNA2. Identical reaction conditions were used for assaying the nuclease activity of yDna2 and hDNA2. […] The reaction buffer was 20 mM HEPES/NaOH, pH 7.5, 60 mM KCl, 1 mM DTT, 100 μg/ml bovine serum albumin and 0.05% Triton X-100. The nuclease assay was initiated by adding MgCl2 (3 mM final concentration). T5 nuclease was assayed in the buffer (50 mM potassium acetate, pH 7.9, 20 mM Tris-acetate, 10 mM magnesium acetate and 1 mM DTT) provided by the vendor (NEB, Ipswich, MA, USA). The concentration of the fluorogenic substrate was 0.1 μM. The optimal amount of yDna2, hDNA2 and T5 nuclease was determined by utilizing the Kaleidagraph software (Reading, PA, USA) to fit the data according to Michaelis Menton Kinetics (V=V0+Vmax*x/(Km+x)). […] All the compounds were dissolved in DMSO and DMSO alone was used as control; the final concentration of DMSO was at 3.33% for protein-based assay and 0.1% for cell-based assay. The Z’ value was calculated as previously described.[50] Cell proliferation was determined using 4,6-diamidino-2-phenylindole staining followed by high-throughput microscopy in a 384-well plate setup. In brief, cells were fixed with formaldehyde, washed and stained with 4,6-diamidino-2-phenylindole and the number of nuclei in each well counted by automated microscopy. The data were analyzed as described.[51]

[1] = screen at fixed inhibitor concentration (33.33 μM), 0.09 nM Dna2

Compound	% Inhibition T5 nuclease (T5 nuclease)	% Inhibition yDna2 (yDna2; [1])	other results
CN1CCN(c2ccc3nc(-c4c(N)c5c(F)cccc5[nH]c4=O)[nH]c3c2)CC1 [(Dovitinib) CHIR258, Dovitinib, reference compound]	60.2%	–	inhibition at 33.33 µM (yDna2; [1]): 54%
CCCCC(CC)CNC(=N)NC(=N)NCCCCCCNC(=N)NC(=N)NCC(CC)CCCC (stereo not drawn) [Alexidine dihydrochloride, reference compound]	100%	–	inhibition at 33.33 µM (yDna2; [1]): 63.5%
CN(C)C/C=C/C(=O)Nc1cc2c(Nc3ccc(F)c(Cl)c3)ncnc2cc1O[C@H]1CCOC1 [BIBW2992, reference compound]	–	–	IC50 (yDna2; compounds that inhibit yDna2 but not T5 nuclease, 384-well platform, read-out: IC50 from Screening In Vitro): 7.2 µM; IC50 (U2OS cells): 1.2 µM
COc1cc(-c2ccc(N=Nc3ccc4c(S(=O)(=O)[O-])cc(S(=O)(=O)[O-])c(N)c4c3O)c(OC)c2)ccc1N=Nc1ccc2c(S(=O)(=O)[O-])cc(S(=O)(=O)[O-])c(N)c2c1O.[Na+].[Na+].[Na+].[Na+] [Chicago Sky blue 6B, reference compound]	100%	69%	–
COc1ccc2c(C)nc(NC3=NC(C)(C)CC(C)=N3)nc2c1 [Compound 5309857]	77.3%	59.9%	–
COc1cccc2c1C(=O)c1c(O)c3c(c(O)c1C2=O)C[C@@](O)(C(C)=O)C[C@@H]3O[C@H]1C[C@H](N)[C@H](O)[C@H](C)O1 [Daunorubicin hydrochloride, reference compound]	98.1%	–	inhibition at 33.33 µM (yDna2): 100%
COc1cccc2c1C(=O)c1c(O)c3c(c(O)c1C2=O)C[C@@](O)(C(=O)CO)C[C@@H]3O[C@H]1C[C@H](N)[C@H](O)[C@H](C)O1 [Doxorubicin hydrochloride, reference compound]	100%	–	inhibition at 33.33 µM (yDna2; [1]): 100%
O=C1c2c(O)ccc(O)c2C(=O)c2c(NCCNCCO)ccc(NCCNCCO)c21 [Mitoxantrone dihydrochloride, reference compound]	100%	–	inhibition at 33.33 µM (yDna2; [1]): 100%
COc1ccc2nc(C)cc(NCCCCCCCCCNc3cc(C)nc4ccc(OC)cc34)c2c1 [NSC10010]	93.7%	90.3%	–
CCN(CC)CCCC(C)Nc1nc(C)cc(Nc2ccc3nc(C)cc(N)c3c2)n1 (stereo not drawn) [NSC23766, reference compound]	94.7%	100%	–
Cc1cc(N)c2cc(NC(=O)/C=C/c3ccccc3Cl)ccc2n1 [NSC33353]	100%	100%	–
Cc1cc2nc3ccc(N(C)C)cc3[s+]c2cc1N [NSC36758]	83.9%	–	inhibition at 33.33 µM (yDna2; [1]): 100%
O=C(Nc1ccc(C2=NCCN2)cc1)c1ccc(C(=O)Nc2ccc(C3=NCCN3)cc2)c(Cl)c1 [NSC60339]	100%	–	inhibition at 33.33 µM (yDna2): 100%
O=C(Nc1ccc(C2=NCCN2)cc1)c1ccc(Cl)c(C(=O)Nc2ccc(C3=NCCN3)cc2)c1 [NSC67436]	100%	100%	–
Cc1cc2c(c3oc(C4(C)OC4C4OC4C)cc(=O)c13)C(=O)c1c(O)c(C3CC(C)(N(C)C)C(O)C(C)O3)cc(C3CC(N(C)C)C(O)C(C)O3)c1C2=O (stereo not drawn) [NSC70929]	100%	100%	–
COc1cccc2c1C(=O)c1c(O)c3c(c(O)c1C2=O)CC(O)(/C(C)=N/O)CC3OC1CC(N)C(O)C(C)O1 (stereo not drawn) [NSC143491]	97.9%	100%	–
O=C(Nc1ccc(Nc2ccncc2)cc1)c1ccc(Nc2ccnc3ccc([N+](=O)[O-])cc23)cc1 [NSC146771]	100%	76.5%	–

Compound	% Inhibition T5 nuclease (T5 nuclease)	% Inhibition yDna2 (yDna2; [1])	other results
Cc1cc(N)c2ccccc2[n+]1CCCCCCCCCC[n+]1c(C)cc(N)c2ccccc21 [NSC166454]	88.9%	–	inhibition at 33.33 µM (yDna2; [1]): 55.4%
NC(N)=NCCCS(=O)(=O)Nc1ccc(Nc2c3ccccc3nc3cc([N+](=O)[O-])ccc23)cc1 [NSC177365]	100%	83.3%	–
c1ccc2c(NCCCCCCCCNc3c4ccccc4nc4ccccc34)c3ccccc3nc2c1 [NSC219734]	100%	85%	–
Cn1ccc(=Nc2ccc(NC(=O)c3ccc(N=c4ccn(C)c5ccc([N+](=O)[O-])cc45)cc3)cc2)cc1 [NSC260594]	100%	94.8%	–
COc1ccc2c(NCCCCCCNc3c4ccccc4nc4cc(OC)ccc34)c3ccccc3nc2c1 [NSC260610]	100%	–	inhibition at 33.33 µM (yDna2; [1]): 100%
Cc1cc(NCCCCCCCNc2cc(C)nc3cc(N)ccc23)c2ccc(N)cc2n1 [NSC273829]	56.5%	–	inhibition at 33.33 µM (yDna2; [1]): 74.4%
Nc1ccc(Cn2ccc3c4c(N)nc(N)nc4ccc32)cc1 [NSC309401]	100%	100%	–
CC(=O)[O-].Cc1c2cc[n+](CCN3CCCCC3)cc2c(C)c2c1[nH]c1ccc(O)cc12 [NSC311153]	100%	100%	–
CCN(CC)Cc1cc2[nH]c3c4ccc(Cl)cc4ncc3c2cc1OC [NSC317605]	99.2%	100%	–
CO[C@H]1C[C@@H]2\C=C(C)/C=C/C=C\C(=O)N[C@H](c3ccccc3)C/C=C/CC[C@H](O)CC(=O)C2=C1O [NSC343256]	72%	71%	–
ClN=C1C=CC=CC1=NCl [NSC344494]	97.9%	51.4%	–
Cl.O=C1c2cccc(NCCCNCCO)c2C(=O)c2cccc(NCCCNCCO)c21 [NSC363998]	74.5%	99%	–
[Mo] [NSC622124]	96.1%	93.4%	–
CC[N+](C)(CC)CCC[n+]1c(-c2ccccc2)c2cc(N)ccc2c2ccc(N)cc21.[I-].[I-] [Propidium Iodide, reference compound]	100%	100%	–
CCN(CC)CCCC(C)Nc1c2ccc(Cl)cc2nc2ccc(OC)cc12 (stereo not drawn) [Quinacrine dihydrochloride, reference compound]	55.4%	–	inhibition at 33.33 µM (yDna2; [1]): 67.8%
Deqalinium dichloride [reference compound]	100%	100%	–
